In patent US9763943B2, “Trk-inhibiting compound” (ONO PHARMACEUTICAL CO., LTD., priority 2013, dated 2017):

The compounds below were run on sodium monoiodoacetate (MIA)-induced model rats (assay: Analgesic effect on sodium monoiodoacetate-induced model rats (right hind limb weight load ratio)). Details: day 24, positive control drug, 10 mg/kg subcutaneous, 1 hour after administration (Table 7).
Format: in vivo, rat

SMILES | Percent improvement (%)
COc1cccc(C2(O)CCCCC2CN(C)C)c1 (stereo not shown) [Tramadol, reference compound] | 43%

Same assay, conditions: day 24, test substance oral twice a day over 10 days, 3 hours after last administration, experiment with morphine as positive control (Table 8)

SMILES | Percent improvement (%)
CS(=O)(=O)c1ccc(C(F)(F)F)cc1NC(=O)Nc1cnc(Oc2ccc(-c3cc(C(F)(F)F)cnc3N)cc2)nc1 [Example 15-98, 1-(2-{4-[2-amino-5-(trifluoromethyl)-3-pyridinyl]phenoxy}-5-pyrimidinyl)-3-[2-(methylsulfonyl)-5-(trifluoromethyl)phenyl]urea] | 57%
CN(C)c1ccn2ncc(-c3ccc(Oc4ncc(NC(=O)Nc5cc(C(F)(F)F)ccc5-c5cccnc5)cn4)cc3)c2n1 [Example 21-37, 1-(2-{4-[5-(dimethylamino)pyrazolo[1,5-a]pyrimidin-3-yl]phenoxy}-5-pyrimidinyl)-3-[2-(3-pyridinyl)-5-(trifluoromethyl)phenyl]urea] | 67%
Nc1ncc(C(F)(F)F)cc1-c1ccc(Oc2ncc(NC(=O)Nc3cc(C(F)(F)F)ccc3-n3cc(Cl)cn3)cn2)cc1 [Example 15-87, 1-(2-{4-[2-amino-5-(trifluoromethyl)-3-pyridinyl]phenoxy}-5-pyrimidinyl)-3-[2-(4-chloro-1H-pyrazol-1-yl)-5-(trifluoromethyl)phenyl]urea] | 57%
Nc1ncc(C(F)(F)F)cc1-c1ccc(Oc2ncc(NC(=O)Nc3cc(C(F)(F)F)ccc3-n3ccc(C(F)(F)F)n3)cn2)cc1 [Example 15-52, 1-(2-{4-[2-amino-5-(trifluoromethyl)-3-pyridinyl]phenoxy}-5-pyrimidinyl)-3-{5-(trifluoromethyl)-2-[3-(trifluoromethyl)-1H-pyrazol-1-yl]phenyl}urea] | 60%
CN(C)c1ccn2ncc(-c3ccc(Oc4ncc(NC(=O)Nc5cc(C(F)(F)F)ccc5-c5ccnn5C)cn4)cc3)c2n1 [Example 21-51, 1-(2-{4-[5-(dimethylamino)pyrazolo[1,5-a]pyrimidin-3-yl]phenoxy}-5-pyrimidinyl)-3-[2-(1-methyl-1H-pyrazol-5-yl)-5-(trifluoromethyl)phenyl]urea] | 68%
Nc1ncc(Cl)cc1-c1ccc(Oc2ncc(NC(=O)Nc3ccc(C(F)(F)F)cc3C(F)(F)F)cn2)cc1 [Example 15-77, 1-{2-[4-(2-amino-5-chloro-3-pyridinyl)phenoxy]-5-pyrimidinyl}-3-[2,4-bis(trifluoromethyl)phenyl]urea] | 55%
CN(C)c1ccn2ncc(-c3ccc(Oc4ncc(NC(=O)Nc5cc(C(F)(F)F)ccc5-c5ccccc5)cn4)cc3)c2n1 [Example 21-70, 1-(2-{4-[5-(dimethylamino)pyrazolo[1,5-a]pyrimidin-3-yl]phenoxy}-5-pyrimidinyl)-3-[4-(trifluoromethyl)-2-biphenylyl]urea] | 61%
Nc1ncc(F)cc1-c1ccc(Oc2ncc(NC(=O)Nc3cc(C(F)(F)F)ccc3-c3cccnc3)cn2)cc1 [Example 14-6, 1-(2-(4-(2-amino-5-fluoropyridin-3-yl)phenoxy)pyrimidin-5-yl)-3-(2-(pyridin-3-yl)-5-(trifluoromethyl)phenyl)urea] | 53%
Nc1ncc(Cl)cc1-c1ccc(Oc2ncc(NC(=O)Nc3cc(C(F)(F)F)ccc3-n3cc(Cl)cn3)cn2)cc1 [Example 15-63, 1-{2-[4-(2-amino-5-chloro-3-pyridinyl)phenoxy]-5-pyrimidinyl}-3-[2-(4-chloro-1H-pyrazol-1-yl)-5-(trifluoromethyl)phenyl]urea] | 53%
Nc1ncc(Cl)cc1-c1ccc(Oc2ncc(NC(=O)Nc3cc(C(F)(F)F)ccc3-c3ccccc3)cn2)cc1 [Example 15-55, 1-{2-[4-(2-amino-5-chloro-3-pyridinyl)phenoxy]-5-pyrimidinyl}-3-[4-(trifluoromethyl)-2-biphenylyl]urea] | 62%
CS(=O)(=O)c1ccc(C(F)(F)F)cc1NC(=O)Nc1cnc(Oc2ccc(-c3cc(Cl)cnc3N)cc2)nc1 [Example 15-104, 1-{2-[4-(2-amino-5-chloro-3-pyridinyl)phenoxy]-5-pyrimidinyl}-3-[2-(methylsulfonyl)-5-(trifluoromethyl)phenyl]urea] | 54%
Cc1cccc(-c2ccc(C(F)(F)F)cc2NC(=O)Nc2cnc(Oc3ccc(-c4cnn5ccc(N(C)C)nc45)cc3)nc2)c1 [Example 21-73, 1-(2-{4-[5-(dimethylamino)pyrazolo[1,5-a]pyrimidin-3-yl]phenoxy}-5-pyrimidinyl)-3-[3′-methyl-4-(trifluoromethyl)-2-biphenylyl]urea] | 62%

Same assay, conditions: day 24, test substance oral twice a day over 10 days, 3 hours after last administration, experiment with tramadol as positive control (Table 7)

SMILES | Percent improvement (%)
Nc1ncc(Cl)cc1-c1ccc(Oc2ncc(NC(=O)Nc3ccc(C(F)(F)F)cc3Cl)cn2)cc1 [Example 15-6, 1-(2-(4-(2-amino-5-chloropyridin-3-yl)phenoxy)pyrimidin-5-yl)-3-(2-chloro-4-(trifluoromethyl)phenyl)urea] | 51%
Nc1ncc(F)cc1-c1ccc(Oc2ncc(NC(=O)Nc3cc(C(F)(F)F)ccc3-n3ccnn3)cn2)cc1 [Example 14-5, 1-(2-(1H-1,2,3-triazol-1-yl)-5-(trifluoromethyl)phenyl)-3-(2-(4-(2-amino-5-fluoropyridin-3-yl)phenoxy)pyrimidin-5-yl)urea] | 47%
Cc1cn(-c2ccc(C(F)(F)F)cc2NC(=O)Nc2cnc(Oc3ccc(-c4cc(Cl)cnc4N)cc3)nc2)nn1 [Example 8-1, 1-(2-(4-(2-amino-5-chloropyridin-3-yl)phenoxy)pyrimidin-5-yl)-3-(2-(4-methyl-1H-1,2,3-triazol-1-yl)-5-(trifluoromethyl)phenyl)urea] | 60%
COc1ccn2ncc(-c3ccc(Oc4ncc(NC(=O)Nc5cc(C(F)(F)F)ccc5-c5cccnc5)cn4)cc3)c2n1 [Example 21-9, 1-(2-(4-(5-methoxypyrazolo[1,5-a]pyrimidin-3-yl)phenoxy)pyrimidin-5-yl)-3-(2-(pyridin-3-yl)-5-(trifluoromethyl)phenyl)urea] | 64%
Nc1ncc(Cl)cc1-c1ccc(Oc2ncc(NC(=O)Nc3cc(C(F)(F)F)ccc3-n3cccn3)cn2)cc1 [Example 7, 1-(2-(1H-pyrazol-1-yl)-5-(trifluoromethyl)phenyl)-3-(2-(4-(2-amino-5-chloropyridin-3-yl)phenoxy)pyrimidin-5-yl)urea] | 61%
O=C(Nc1cnc(Oc2ccc(-c3cnn4cccnc34)cc2)nc1)Nc1cc(C(F)(F)F)ccc1-c1cccnc1 [Example 21-13, 1-(2-(4-(pyrazolo[1,5-a]pyrimidin-3-yl)phenoxy)pyrimidin-5-yl)-3-(2-(pyridin-3-yl)-5-(trifluoromethyl)phenyl)urea] | 66%
